Source: patent US12655123B2, “Heteroaryl compounds, solid forms, preparation methods and uses thereof” (InventisBio Co., Ltd., priority 2022, dated 2026)
Values after ≈ are worked out from the molar mass of the structure shown. “Also recorded” adds a separate entry of the source. Structures can show the parent of a compound that is named as a salt. Values belong to the compound of their own block, whether it stands above or below them.

Experiments:
[1] = Solubility in bio-relevant media (FaSSIF, FeSSIF, SGF); assay type: physicochemical
Description: (§1) High Performance Liquid Chromatography (HPLC): a representative HPLC method is shown below, which can be used, for example, to analyze the purity, solubility, and stability of Compound 1 herein.

[2] = Dynamic vapor sorption (DVS) analysis; assay type: physicochemical; conditions: for hygroscopic weight gain / water uptake (DVS): at 90% RH
Protocol: Dynamic Vapor Sorption (DVS) Analysis: Moisture sorption/desorption data was collected on a DVS Intrinsic PLUS (SMS, UK). The sample was placed into a tared sample chamber and automatically weighed. The sample was dried at 40° C. until the dm/dt was less than 0.002% and cooled to 25° C.

[3] = Slurry bridging studies among Form I, Form III and Form VI under different water activities; assay type: physicochemical; conditions: versus Form I and Form VI
Solid stability = assay type: physicochemical
Description: as §1

[4] = Inter-conversion study among identified anhydrates in organic solvents; assay type: physicochemical; conditions: different organic solvents, RT to 60° C.
Protocol: Inter-conversion study among identified anhydrates (Form I, Form II, Form III, Form IV, Form V, Form VIII, Form X, Form XIII, Form XIV, Form XV) was conducted in different organic solvents between RT to 60° C.

IL23 = conditions: as tested in PCT/CN2021/140271; read-out: HEK blue IL23 IC50; cited from earlier work
[5] = Simulated Gastric Fluid (SGF), simulated gastric fluid, thermodynamic from solid, SGF
[6] = thermodynamic from solid, FaSSIF
[7] = thermodynamic from solid, FeSSIF

Structure (SMILES): [2H]C([2H])([2H])NC(=O)c1nnc(NC(=O)C2CC2)cc1Nc1ncc(Cl)cc1S(C)(=O)=O [sulfate Form B]
solubility ([1]; bio-relevant media (FaSSIF, FeSSIF, SGF), fassgf or other biorelevant, thermodynamic from solid): < 20 µg/mL
hygroscopic weight gain / water uptake (DVS) [2]: about 1.0%

Structure (SMILES): [2H]C([2H])([2H])NC(=O)c1nnc(NC(=O)C2CC2)cc1Nc1ncc(Cl)cc1S(C)(=O)=O [phosphate Form E]
hygroscopic weight gain / water uptake (DVS) [2]: about 0.92%

Structure (SMILES): [2H]C([2H])([2H])NC(=O)c1nnc(NC(=O)C2CC2)cc1Nc1ncc(Cl)cc1S(C)(=O)=O [Compound 1]
IC50 (IL23): 2.5 nM

Continued, in another order:

hygroscopic weight gain / water uptake (DVS) [2]: about 10%
Structure (SMILES): [2H]C([2H])([2H])NC(=O)c1nnc(NC(=O)C2CC2)cc1Nc1ncc(Cl)cc1S(C)(=O)=O [sulfate Form A]

hygroscopic weight gain / water uptake (DVS) [2]: about 23%
Structure (SMILES): [2H]C([2H])([2H])NC(=O)c1nnc(NC(=O)C2CC2)cc1Nc1ncc(Cl)cc1S(C)(=O)=O [choline salt Form K]

water activity up to which the form is more stable ([3]; 25° C.): not more than 0.56
water activity up to which the form is more stable ([3]; 50° C.): ≤ 0.83
solubility at 0.5 h [1, 5]: 7.3 µg/mL (≈ 17.1 µM)
solubility at 2 h [1, 5]: 8.2 µg/mL (≈ 19.2 µM)
solubility at 24 h [1, 5]: 5.7 µg/mL (≈ 13.3 µM)
solubility at 0.5 h [1, 6]: 1.1 µg/mL (≈ 2.57 µM)
solubility at 2 h [1, 6]: 1.1 µg/mL (≈ 2.57 µM)
solubility at 24 h [1, 6]: 1.3 µg/mL (≈ 3.04 µM)
solubility at 0.5 h [1, 7]: 2.6 µg/mL (≈ 6.08 µM)
solubility at 2 h [1, 7]: 3.4 µg/mL (≈ 7.95 µM)
solubility at 24 h [1, 7]: 4.1 µg/mL (≈ 9.58 µM)
DVS reversibility [2]: Reversible
DVS Wt. gain % ([2]; 0-80% RH): 0.09%, 0-80% RH
DVS Wt. gain % ([2]; 80-90% RH): 0.03%, 80-90% RH
hygroscopic weight gain / water uptake (DVS) [2]: 0.13%
relative stability among anhydrate forms [4]: most stable anhydrate form
Structure (SMILES): [2H]C([2H])([2H])NC(=O)c1nnc(NC(=O)C2CC2)cc1Nc1ncc(Cl)cc1S(C)(=O)=O [Form III]
Solid stability (Solid stability; 40° C./75% RH for 7 d): physically and chemically stable; also recorded: Chemically and physically stable
Solid stability (Solid stability; 60° C. for 7 d): physically and chemically stable; also recorded: Chemically and physically stable
Solid stability (Solid stability; 92.5% RH for 10 d): crystal form remained unchanged; also recorded: Physically stable
Solubility (in words) [1]: low and pH-dependent with higher solubility observed in Simulated Gastric Fluid (SGF)
